Test results taken from patent US6444852B1, “Amines useful in inhibiting gas hydrate formation” (Goldschmidt Chemical Corporation, priority 1999, dated 2002).
One block for each compound: values may come before it.

Key:
[1] = Behavior (solubility/dispersibility) in water and […] brine at 5% concentration; type: physicochemical; conditions: 5% concentration as is
Description: The compounds tested are set forth in the following Table 1, CE# denotes a comparative example, whereas S# denotes a compound of the present invention.

[2] = Anti-agglomeration of gas hydrates in presence of crude oil (high-pressure autoclave); conditions: for State of the hydrates after depressurization: 1.125% solvent-free basis in salt water, 3300 psi, 40° F. 16 hours
Method: The comparative test was carried out at a 50:50 oil to water ratio.
The crude oil was heated to 150° F. to dissolve waxes. […] To saturate the liquid with gas, after 30 minutes, the agitation was reduced to 100 rpm and the autoclave was cooled at 10° F./hr to 40° F., at which time, agitation was stopped and the 40° F. temperature was maintained for 16 hours.
After the 16 hour time period, agitation was restarted at 500 rpm to determine the torque required and the experiment was run for 5 hours, if possible. The autoclave was then rapidly depressurized and the state of the hydrates was observed.

Compound: C12-C14 oxypropyl tributylammonium bromide [Sample S1]
State of the hydrates after depressurization ([2]; oil to water 50:50): very small particles which were creamy in texture
State of the hydrates after depressurization ([2]; oil to water 70:30): very small particles which were creamy in texture
Gas hydrates on the walls of the reactor ([2]; 1.125% solvent-free basis, 70:30 and 50:50 ratios): No gas hydrates were observed on the walls of the reactor
Effectiveness as anti-agglomeration agent ([2]; low use levels): highly effective

Compound: C12-C14 oxypropyl dibutyl amino propyl tributylammonium dibromide [Sample S5]
Behavior in […] Brine [1]: Soluble
Behavior in Water [1]: Soluble

Now from value to compound:

Behavior in […] Brine [1]: Soluble
Behavior in Water [1]: Soluble
Compound: C12-C14 oxypropyl dibutyl ethylammonium ethylsulfate [Sample S4]

Behavior in Water [1]: Insoluble
Compound: CCCCCCCCCCCCCCCC[N+](CCCC)(CCCC)CCCC.[Br-] [CE2, Hexadecyl tributyl ammonium bromide, reference compound]

Behavior in […] Brine [1]: Soluble
Behavior in Water [1]: Soluble
Compound: C12-C14 oxypropyl dibutyl methylammonium methyl sulfate [Sample S2]
